# Laboratory results from patent US9452986B2, “6-heteroaryloxy- or 6-aryloxy-quinoline-2-carboxamides and method of use” (AbbVie Inc., priority 2014, dated 2016).
# Biological target: recombinant human Nav1.7 (Homo sapiens (Human), UniProt Q15858)
# Assay: FRET-based membrane potential assay, recombinant human sodium channel Nav1.7
# Assay type: cell-based
# Conditions: HEK293 cells stably expressing recombinant human Nav1.7; veratridine + scorpion venom depolarization; read-out: FRET-Membrane Potential Nav1.7 IC50
# Summary of the method: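 Channel activation used veratridine at its EC80, set by a dilution curve each experiment, together with Leiurus scorpion venom, added 3 min after compound. Membrane-potential ratio signals from FLIPR Tetra in HEPES-buffered HBSS were fitted to a four-parameter Hill equation for percent inhibition and IC50.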
# recombinant human Nav1.7, sequence (Q15858 whole entry): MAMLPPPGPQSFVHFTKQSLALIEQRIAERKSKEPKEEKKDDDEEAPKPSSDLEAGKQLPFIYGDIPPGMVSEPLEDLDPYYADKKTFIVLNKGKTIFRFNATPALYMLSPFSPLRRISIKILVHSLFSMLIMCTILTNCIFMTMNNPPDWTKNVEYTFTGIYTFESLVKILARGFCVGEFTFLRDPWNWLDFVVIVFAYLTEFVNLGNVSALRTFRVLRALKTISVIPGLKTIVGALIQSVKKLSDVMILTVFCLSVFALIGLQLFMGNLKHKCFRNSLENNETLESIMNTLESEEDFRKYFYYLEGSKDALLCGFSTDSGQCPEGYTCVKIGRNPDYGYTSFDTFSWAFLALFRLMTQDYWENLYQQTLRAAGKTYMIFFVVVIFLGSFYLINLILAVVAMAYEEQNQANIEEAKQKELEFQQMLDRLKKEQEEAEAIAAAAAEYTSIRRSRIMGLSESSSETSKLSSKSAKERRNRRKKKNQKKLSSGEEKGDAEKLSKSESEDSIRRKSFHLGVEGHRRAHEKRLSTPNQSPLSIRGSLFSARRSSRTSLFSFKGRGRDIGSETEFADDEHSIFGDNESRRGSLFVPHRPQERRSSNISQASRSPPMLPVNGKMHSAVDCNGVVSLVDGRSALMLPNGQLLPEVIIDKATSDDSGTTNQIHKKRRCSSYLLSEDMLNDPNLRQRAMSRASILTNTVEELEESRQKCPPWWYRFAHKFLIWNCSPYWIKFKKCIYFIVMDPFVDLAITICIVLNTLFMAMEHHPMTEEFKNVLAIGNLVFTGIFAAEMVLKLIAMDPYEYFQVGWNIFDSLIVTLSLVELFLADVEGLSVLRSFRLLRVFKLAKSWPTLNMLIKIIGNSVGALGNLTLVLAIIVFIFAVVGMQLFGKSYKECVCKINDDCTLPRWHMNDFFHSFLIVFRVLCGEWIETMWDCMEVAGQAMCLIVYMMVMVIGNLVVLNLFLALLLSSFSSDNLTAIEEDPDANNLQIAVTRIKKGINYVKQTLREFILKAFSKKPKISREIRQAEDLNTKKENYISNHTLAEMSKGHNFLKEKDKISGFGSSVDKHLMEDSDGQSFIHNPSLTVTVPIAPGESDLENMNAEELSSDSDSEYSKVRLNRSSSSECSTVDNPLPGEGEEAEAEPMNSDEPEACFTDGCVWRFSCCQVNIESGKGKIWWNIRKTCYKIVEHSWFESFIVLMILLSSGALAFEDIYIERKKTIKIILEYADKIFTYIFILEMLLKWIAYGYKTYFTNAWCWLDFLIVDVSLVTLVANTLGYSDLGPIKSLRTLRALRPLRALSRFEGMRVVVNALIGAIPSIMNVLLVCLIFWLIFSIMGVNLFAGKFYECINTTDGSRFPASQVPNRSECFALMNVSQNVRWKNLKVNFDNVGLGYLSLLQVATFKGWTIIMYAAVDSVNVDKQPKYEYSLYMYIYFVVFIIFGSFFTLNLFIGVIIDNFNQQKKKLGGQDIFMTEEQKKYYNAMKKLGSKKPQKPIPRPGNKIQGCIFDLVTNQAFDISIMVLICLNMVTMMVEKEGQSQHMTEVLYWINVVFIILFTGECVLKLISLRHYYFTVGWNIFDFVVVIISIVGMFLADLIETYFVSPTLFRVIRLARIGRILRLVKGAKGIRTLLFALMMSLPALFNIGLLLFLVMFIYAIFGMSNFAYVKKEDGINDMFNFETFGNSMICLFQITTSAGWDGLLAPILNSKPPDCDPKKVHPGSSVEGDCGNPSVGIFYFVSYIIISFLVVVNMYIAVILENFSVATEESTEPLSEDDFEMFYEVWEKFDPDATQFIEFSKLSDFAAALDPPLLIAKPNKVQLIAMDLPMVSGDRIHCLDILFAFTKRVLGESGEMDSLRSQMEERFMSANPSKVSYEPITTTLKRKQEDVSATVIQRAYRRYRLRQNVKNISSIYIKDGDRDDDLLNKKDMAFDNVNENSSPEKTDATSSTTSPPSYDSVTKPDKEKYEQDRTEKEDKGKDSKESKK
row,Compound,IC50
1,"O=C(NCC1COCCN1Cc1ccccc1)c1ccc2cc(Oc3ccc(C(F)(F)F)cn3)ccc2n1 (stereo not shown) [Example 361, N-[(4-benzylmorpholin-3-yl)methyl]-6-{[5-(trifluoromethyl)pyridin-2-yl]oxy}quinoline-2-carboxamide]",2880 nM
2,"O=C(NCC1(O)CCOCC1)c1ccc2cc(Oc3ccc(C(F)(F)F)cn3)ccc2n1 [Example 362, N-[(4-hydroxytetrahydro-2H-pyran-4-yl)methyl]-6-{[5-(trifluoromethyl)pyridin-2-yl]oxy}quinoline-2-carboxamide]",1000 nM
3,"O=C(NC[C@@H]1CCCN1)c1ccc2cc(Oc3ccc(C(F)(F)F)cn3)ccc2n1 [Example 363, N-[(2S)-pyrrolidin-2-ylmethyl]-6-{[5-(trifluoromethyl)pyridin-2-yl]oxy}quinoline-2-carboxamide]",1190 nM
4,"CC1(C)CN(CCNC(=O)c2ccc3cc(Oc4ccc(C(F)(F)F)cn4)ccc3n2)C1 [Example 364, N-[2-(3,3-dimethylazetidin-1-yl)ethyl]-6-{[5-(trifluoromethyl)pyridin-2-yl]oxy}quinoline-2-carboxamide]",370 nM
5,"O=C(NCCN1CCSCC1)c1ccc2cc(Oc3ccc(C(F)(F)F)cn3)ccc2n1 [Example 365, N-[2-(thiomorpholin-4-yl)ethyl]-6-{[5-(trifluoromethyl)pyridin-2-yl]oxy}quinoline-2-carboxamide]",356 nM
6,"C=CCN(C)C(=O)c1ccc2cc(Oc3ccc(C(F)(F)F)cn3)ccc2n1 [Example 366, N-allyl-N-methyl-6-{[5-(trifluoromethyl)pyridin-2-yl]oxy}quinoline-2-carboxamide]",3180 nM
7,"N#CC1CN(C(=O)c2ccc3cc(Oc4ccc(C(F)(F)F)cn4)ccc3n2)C1 [Example 367, 1-[(6-{[5-(trifluoromethyl)pyridin-2-yl]oxy}quinolin-2-yl)carbonyl]azetidine-3-carbonitrile]",2530 nM
8,"O=C(NCC1(O)CC1)c1ccc2cc(Oc3ccc(C(F)(F)F)cn3)ccc2n1 [Example 369, N-[(1-hydroxycyclopropyl)methyl]-6-{[5-(trifluoromethyl)pyridin-2-yl]oxy}quinoline-2-carboxamide]",15200 nM
9,"O=C(NC1COCC1O)c1ccc2cc(Oc3ccc(C(F)(F)F)cn3)ccc2n1 (stereo not shown) [Example 371, N-(4-hydroxytetrahydrofuran-3-yl)-6-{[5-(trifluoromethyl)pyridin-2-yl]oxy}quinoline-2-carboxamide]",1460 nM
10,"N#Cc1cnc(Oc2ccc3nc(C(=O)N4CCNCC4)ccc3c2)cn1 [Example 372, 5-{[2-(piperazin-1-ylcarbonyl)quinolin-6-yl]oxy}pyrazine-2-carbonitrile]",> 20000 nM
11,"O=C1CCN(C(=O)c2ccc3cc(Oc4ccc(C(F)(F)F)cn4)ccc3n2)CC1 [Example 375, 1-[(6-{[5-(trifluoromethyl)pyridin-2-yl]oxy}quinolin-2-yl)carbonyl]piperidin-4-one]",13200 nM
12,"O=C(c1ccc2cc(Oc3ccc(C(F)(F)F)cn3)ccc2n1)N(C1CCOCC1)C1CCOCC1 [Example 376, N,N-di(tetrahydro-2H-pyran-4-yl)-6-{[5-(trifluoromethyl)pyridin-2-yl]oxy}quinoline-2-carboxamide]",3060 nM
13,"O=C(c1ccc2cc(Oc3ccc(C(F)(F)F)cn3)ccc2n1)N1CCC(N2C[C@@H]3C[C@H]2CO3)CC1 [Example 377, {4-[(1S,4S)-2-oxa-5-azabicyclo[2.2.1]hept-5-yl]piperidin-1-yl}(6-{[5-(trifluoromethyl)pyridin-2-yl]oxy}quinolin-2-yl)methanone]",3320 nM
14,"O=C(c1ccc2cc(Oc3ccc(C(F)(F)F)cn3)ccc2n1)N1CCC(N2C[C@H]3C[C@@H]2CO3)CC1 [Example 378, {4-[(1R,4R)-2-oxa-5-azabicyclo[2.2.1]hept-5-yl]piperidin-1-yl}(6-{[5-(trifluoromethyl)pyridin-2-yl]oxy}quinolin-2-yl)methanone]",2230 nM
15,"COCCN(CCOC)C(=O)c1ccc2cc(Oc3ccc(C(F)(F)F)cn3)ccc2n1 [Example 379, N,N-bis(2-methoxyethyl)-6-{[5-(trifluoromethyl)pyridin-2-yl]oxy}quinoline-2-carboxamide]",3390 nM
16,"O=C(NC1(CO)CC1)c1ccc2cc(Oc3ccc(C(F)(F)F)cn3)ccc2n1 [Example 380, N-[1-(hydroxymethyl)cyclopropyl]-6-{[5-(trifluoromethyl)pyridin-2-yl]oxy}quinoline-2-carboxamide]",3000 nM
17,"O=C(c1ccc2cc(Oc3ccc(C(F)(F)F)cn3)ccc2n1)N1CCN(S(=O)(=O)C2CCOC2)CC1 (stereo not shown) [Example 381, [4-(tetrahydrofuran-3-ylsulfonyl)piperazin-1-yl](6-{[5-(trifluoromethyl)pyridin-2-yl]oxy}quinolin-2-yl)methanone]",3410 nM
18,"COC(=O)CS(=O)(=O)N1CCN(C(=O)c2ccc3cc(Oc4ccc(C(F)(F)F)cn4)ccc3n2)CC1 [Example 382, methyl ({4-[(6-{[5-(trifluoromethyl)pyridin-2-yl]oxy}quinolin-2-yl)carbonyl]piperazin-1-yl}sulfonyl)acetate]",1820 nM
19,"O=C(c1ccc2cc(Oc3ccc(C(F)(F)F)cn3)ccc2n1)N1CCN(S(=O)(=O)C2CCOCC2)CC1 [Example 383, [4-(tetrahydro-2H-pyran-4-ylsulfonyl)piperazin-1-yl](6-{[5-(trifluoromethyl)pyridin-2-yl]oxy}quinolin-2-yl)methanone]",> 20000 nM
20,"COCCn1cc(S(=O)(=O)N2CCN(C(=O)c3ccc4cc(Oc5ccc(C(F)(F)F)cn5)ccc4n3)CC2)cn1 [Example 384, (4-{[1-(2-methoxyethyl)-1H-pyrazol-4-yl]sulfonyl}piperazin-1-yl)(6-{[5-(trifluoromethyl)pyridin-2-yl]oxy}quinolin-2-yl)methanone]",1930 nM
21,"O=C(c1ccc2cc(Oc3ccc(C(F)(F)F)cn3)ccc2n1)N1CCN(S(=O)(=O)CC2CCOC2)CC1 (stereo not shown) [Example 385, {4-[(tetrahydrofuran-3-ylmethyl)sulfonyl]piperazin-1-yl}(6-{[5-(trifluoromethyl)pyridin-2-yl]oxy}quinolin-2-yl)methanone]",2330 nM
22,"O=C(c1ccc2cc(Oc3ccc(C(F)(F)F)cn3)ccc2n1)N1CCN(S(=O)(=O)C2CCS(=O)(=O)C2)CC1 (stereo not shown) [Example 386, {4[(1,1-dioxidotetrahydrothiophen-3-yl)sulfonyl]piperazin-1-yl}(6-{[5-(trifluoromethyl)pyridin-2-yl]oxy}quinolin-2-yl)methanone]",> 20000 nM
23,"Cn1cc(S(=O)(=O)N2CCN(C(=O)c3ccc4cc(Oc5ccc(C(F)(F)F)cn5)ccc4n3)CC2)cn1 [Example 387, {4-[(1-methyl-1H-pyrazol-4-yl)sulfonyl]piperazin-1-yl}(6-{[5-(trifluoromethyl)pyridin-2-yl]oxy}quinolin-2-yl)methanone]",2480 nM
24,"CC(=O)Nc1nc(C)c(S(=O)(=O)N2CCN(C(=O)c3ccc4cc(Oc5ccc(C(F)(F)F)cn5)ccc4n3)CC2)s1 [Example 388, N-[4-methyl-5-({4-[(6-{[5-(trifluoromethyl)pyridin-2-yl]oxy}quinolin-2-yl)carbonyl]piperazin-1-yl}sulfonyl)-1,3-thiazol-2-yl]acetamide]",> 20000 nM

# Same assay, conditions: read-out: FRET-Membrane Potential Nav1.7 IC50
row,Compound,IC50
1,"O=C1CN(C(=O)c2ccc3cc(Oc4ccc(C(F)(F)F)cn4)ccc3n2)C1 [Example 370, 1-[(6-{[5-(trifluoromethyl)pyridin-2-yl]oxy}quinolin-2-yl)carbonyl]azetidin-3-one]",3390 nM
